Assay: solvent given as SMILES

Clc1cc(Cl)c(-c2ccc(Cl)c(Cl)c2Cl)cc1Cl
solvation free energy, 298 K (in CCCCCCCCO): -13.2 kcal/mol
solvation free energy, 298 K (in O): -3.34 kcal/mol

ClC1CCCCC1
solvation free energy, 298 K (in O): -0.93 kcal/mol

CCC(C)OC(C)CC (stereo not drawn)
solvation free energy, 298 K (in O): -0.8 kcal/mol

Clc1ccc(Cl)c(Cl)c1Cl
solvation free energy, 298 K (in CCCCCCCCC=CCCCCCCCC(=O)OCC(COC(=O)CCCCCCCC=CCCCCCCCC)OC(=O)CCCCCCCC=CCCCCCCCC): -7.82 kcal/mol
solvation free energy, 298 K (in CCCCCCCCO): -7.69 kcal/mol
solvation free energy, 298 K (in O): -1.34 kcal/mol

O=C(Oc1ccccc1)c1ccccc1C(=O)Oc1ccccc1
solvation free energy, 298 K (in O): -11.6 kcal/mol

CN(C)CCC(c1ccc(Br)cc1)c1ccccn1 (stereo not drawn)
solvation free energy, 298 K (in O): -11.6 kcal/mol

CCCCC(=O)CC(C)=O
solvation free energy, 298 K (in O): -4.28 kcal/mol

ClCC(Cl)Cl
solvation free energy, 298 K (in CCCCCCCCO): -4.63 kcal/mol
solvation free energy, 298 K (in ClC(Cl)(Cl)Cl): -5.06 kcal/mol
solvation free energy, 298 K (in ClC(Cl)Cl): -5.28 kcal/mol
solvation free energy, 298 K (in ClCCCl): -5.47 kcal/mol
solvation free energy, 298 K (in O): -1.99 kcal/mol

CC(=O)OC(C)(C)C1CC=C(C)CC1 (stereo not drawn)
solvation free energy, 298 K (in O): -3.41 kcal/mol

C1CC1
solvation free energy, 298 K (in C1COCCO1): -1.94 kcal/mol
solvation free energy, 298 K (in CC(C)O): -1.58 kcal/mol
solvation free energy, 298 K (in CCCCCC): -1.98 kcal/mol
solvation free energy, 298 K (in CCCCO): -1.72 kcal/mol
solvation free energy, 298 K (in CCCO): -1.57 kcal/mol
solvation free energy, 298 K (in O): 0.75 kcal/mol

CCCCOC
solvation free energy, 298 K (in CCCCCl): -4.26 kcal/mol
solvation free energy, 298 K (in ClC(Cl)(Cl)Cl): -4.39 kcal/mol
solvation free energy, 298 K (in ClCCl): -4.71 kcal/mol

CC(=O)OC1C2(C)CCC(C2)C1(C)C (stereo not drawn)
solvation free energy, 298 K (in O): -2.69 kcal/mol

O=C(c1ccc(Br)cc1)N(O)c1ccc(Cl)cc1
solvation free energy, 298 K (in O): -11.6 kcal/mol

C=CC(C)(C)C
solvation free energy, 298 K (in C=CCCCCCCCCCCCCCC): -2.97 kcal/mol
solvation free energy, 298 K (in O): 1.57 kcal/mol

CC(=O)c1ccc(C)cc1
solvation free energy, 298 K (in O): -4.7 kcal/mol

CCC(C)Cl (stereo not drawn)
solvation free energy, 298 K (in C1CCOC1): -4.34 kcal/mol
solvation free energy, 298 K (in C1CCOCC1): -4.24 kcal/mol
solvation free energy, 298 K (in C1COCCO1): -4.08 kcal/mol
solvation free energy, 298 K (in C=CCCCCCCCCCCCCCC): -3.46 kcal/mol
solvation free energy, 298 K (in CC(C)OC(C)C): -3.95 kcal/mol
solvation free energy, 298 K (in CCCCCC): -3.84 kcal/mol
solvation free energy, 298 K (in CCCCCl): -4.16 kcal/mol
solvation free energy, 298 K (in COC(C)(C)C): -4.08 kcal/mol

C=CC=CC
solvation free energy, 298 K (in N#Cc1ccccc1): -3.26 kcal/mol

CCCCCC(=O)O
solvation free energy, 298 K (in O): -6.11 kcal/mol

CCOP(=O)(OCC)OCC
solvation free energy, 298 K (in O): -7.5 kcal/mol

CC(=O)OC(C)OC(C)=O
solvation free energy, 298 K (in O): -4.97 kcal/mol

CCOP(=S)(OCC)Oc1ccc([N+](=O)[O-])cc1
solvation free energy, 298 K (in O): -6.74 kcal/mol

C=C(C)C1CC=C(C)C(OC(C)=O)C1 (stereo not drawn)
solvation free energy, 298 K (in O): -4 kcal/mol

OCCc1ccccc1
solvation free energy, 298 K (in O): -6.79 kcal/mol

c1cc[nH]c1
solvation free energy, 298 K (in O): -4.78 kcal/mol

C=C(C)C(=O)O
solvation free energy, 298 K (in O): -6.08 kcal/mol

CC1=CC=C(C(C)C)CC1
solvation free energy, 298 K (in O): 0.12 kcal/mol

CC(=O)OCC(C)C
solvation free energy, 298 K (in CCCCCCCCCCCCCCCC): -4.32 kcal/mol
solvation free energy, 298 K (in CCCCCCCCO): -4.71 kcal/mol
solvation free energy, 298 K (in O): -2.41 kcal/mol
solvation free energy, 298 K (in [2H]O[2H]): -2.47 kcal/mol

CN(CC(F)(F)F)c1ccccc1
solvation free energy, 298 K (in O): -1.92 kcal/mol

BrCBr
solvation free energy, 298 K (in CCCCCCCCCCCCCCCC): -3.87 kcal/mol
solvation free energy, 298 K (in CCCCCCCCO): -4.19 kcal/mol
solvation free energy, 298 K (in O): -2.01 kcal/mol
solvation free energy, 298 K (in [2H]O[2H]): -2.03 kcal/mol

CCCCCOC(C)=O
solvation free energy, 298 K (in CCCCCC): -5.57 kcal/mol
solvation free energy, 298 K (in CCCCCCC): -5.48 kcal/mol
solvation free energy, 298 K (in CCCCCCCC): -5.42 kcal/mol
solvation free energy, 298 K (in CCCCCCCCCC): -5.37 kcal/mol
solvation free energy, 298 K (in CCCCCCCCCCCCCCCC): -5.24 kcal/mol
solvation free energy, 298 K (in CCCCCCCCO): -5.61 kcal/mol
solvation free energy, 298 K (in NC=O): -4.32 kcal/mol
solvation free energy, 298 K (in O): -2.48 kcal/mol
solvation free energy, 298 K (in [2H]O[2H]): -2.55 kcal/mol

CCC(C)O (stereo not drawn)
solvation free energy, 298 K (in Brc1ccccc1): -4.15 kcal/mol
solvation free energy, 298 K (in C1COCCO1): -5.54 kcal/mol
solvation free energy, 298 K (in CC#N): -4.82 kcal/mol
solvation free energy, 298 K (in CC(=O)N(C)C): -5.89 kcal/mol
solvation free energy, 298 K (in CC(C)(C)O): -5.67 kcal/mol
solvation free energy, 298 K (in CC(C)CC(C)(C)C): -3.42 kcal/mol
solvation free energy, 298 K (in CC(C)O): -5.61 kcal/mol
solvation free energy, 298 K (in CC(C)OC(C)C): -4.56 kcal/mol
solvation free energy, 298 K (in CCC(C)=O): -5.18 kcal/mol
solvation free energy, 298 K (in CCCCCC): -3.56 kcal/mol
solvation free energy, 298 K (in CCCCCCC): -3.28 kcal/mol
solvation free energy, 298 K (in CCCCCCCC): -3.26 kcal/mol
solvation free energy, 298 K (in CCCCCCCCCCCCCCCC): -3.16 kcal/mol
solvation free energy, 298 K (in CCCCCCCCCCO): -5.31 kcal/mol
solvation free energy, 298 K (in CCCCCCCCO): -5.15 kcal/mol
solvation free energy, 298 K (in CCCCCl): -4.17 kcal/mol
solvation free energy, 298 K (in CCCCO): -5.5 kcal/mol
solvation free energy, 298 K (in CCCCOC(C)=O): -4.9 kcal/mol
solvation free energy, 298 K (in CCCOCCC): -4.4 kcal/mol
solvation free energy, 298 K (in CCOC(=O)c1ccccc1C(=O)OCC): -4.35 kcal/mol
solvation free energy, 298 K (in CN(C)C=O): -5.67 kcal/mol
solvation free energy, 298 K (in CO): -6.02 kcal/mol
solvation free energy, 298 K (in Cc1ccc(C)cc1): -4.23 kcal/mol
solvation free energy, 298 K (in Cc1cccc(C)c1): -4.14 kcal/mol
solvation free energy, 298 K (in Cc1ccccc1C): -4.19 kcal/mol
solvation free energy, 298 K (in Clc1ccccc1): -4.26 kcal/mol

CCOC(=O)CC(=O)OCC
solvation free energy, 298 K (in O): -6 kcal/mol

From the CombiSolv-Exp solvation set (Vermeire and Green 2021)
